# Read-outs that look alike come from different tables or passages of the source.
# What was measured:
# [1] = tested on: extensor digitorum longus muscle; conditions: rat hind limb extensor digitorum longus; cited from earlier work
# [2] = tested on: eye muscles (lateral rectus muscle); type: in vivo, human
# [3] = tested on: eye muscles (lateral rectus muscle); conditions: bupivacaine injected into eye muscles of strabismus patients; cited from earlier work
structure (smiles),measurement,setting,value
CCCCN1CCCCC1C(=O)Nc1c(C)cccc1C (stereo not drawn) [bupivacaine],muscle size after injection,[1],enlargement of the muscle beyond its original size
same,change of eye alignment,[2]; bupivacaine alone into lateral rectus,ineffective in changing eye alignment
same,correction of strabismus,"[2]; human, in vivo",successful correction of strabismus
same,length of regenerated lateral rectus muscle,"[2]; human, in vivo",shorter length
same,length of regenerated lateral rectus muscle,"[2]; one case of esotropia, bupivacaine alone, antagonist medial rectus unopposed",longer muscle
same,myotoxicity and weakness of the injected lateral rectus muscle,"[2]; one case of esotropia, bupivacaine alone, first injection",very pronounced
same,effect on strabismus deviations,[3],correction or improvement of strabismus deviations
same,period of hypertrophy (growth beyond the original state) after regeneration,[3],20 to 30 days
same,period of muscle weakness after injection,[3],7 to 16 days

# From patent US8193220B1 (priority 2009, dated 2012)
